From the supplement of paper PMC10307832

Experiments:
Assay in all cases: relative viability (nuclei count vs DMSO), 5 days (fraction); higher = more cells survive
Cediranib + Decitabine = compound: COc1cc2c(Oc3ccc4[nH]c(C)cc4c3F)ncnc2cc1OCCCN1CCCC1 [Cediranib] + Nc1ncn([C@H]2C[C@H](O)[C@@H](CO)O2)c(=O)n1 [Decitabine] (partner 2 µM)
Outline: (§1)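 Values are medians from duplicate plates. Each reflects relative viability, defined as the nuclei count of treated wells over that of vehicle wells. Lung cancer cell lines in 1536-well plates were pin-tool dosed one day after seeding with one drug alone or with a fixed anchor-drug dose plus five library-drug doses (not always all listed) in √10 steps, then fixed, stained and imaged at 4× after 5 days.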

Cediranib + Olaparib = compound: COc1cc2c(Oc3ccc4[nH]c(C)cc4c3F)ncnc2cc1OCCCN1CCCC1 [Cediranib] + O=C(c1cc(Cc2n[nH]c(=O)c3ccccc23)ccc1F)N1CCN(C(=O)C2CC2)CC1 [Olaparib] (partner 8 µM)
Outline: as §1

Decitabine + Tozasertib = compound: Nc1ncn([C@H]2C[C@H](O)[C@@H](CO)O2)c(=O)n1 [Decitabine] + Cc1cc(Nc2cc(N3CCN(C)CC3)nc(Sc3ccc(NC(=O)C4CC4)cc3)n2)n[nH]1 [Tozasertib] (partner 0.1 µM)
Outline: as §1

Halofuginone + Dasatinib = compound: O=C(C[C@H]1NCCC[C@@H]1O)Cn1cnc2cc(Br)c(Cl)cc2c1=O (racemic) [Halofuginone] + Cc1nc(Nc2ncc(C(=O)Nc3c(C)cccc3Cl)s2)cc(N2CCN(CCO)CC2)n1 [Dasatinib] (partner 0.075 µM)
Outline: as §1

Cell Line | relative viability (Cediranib + Decitabine; first compound 0.04 µM) | relative viability (Cediranib + Decitabine; first compound 0.4 µM) | relative viability (Cediranib + Decitabine; first compound 1.265 µM) | relative viability (Cediranib + Decitabine; first compound 4 µM) | relative viability (Cediranib + Olaparib; first compound 0.04 µM) | relative viability (Cediranib + Olaparib; first compound 0.4 µM) | relative viability (Cediranib + Olaparib; first compound 1.265 µM) | relative viability (Cediranib + Olaparib; first compound 4 µM) | relative viability (Decitabine + Tozasertib; first compound 0.04 µM) | relative viability (Decitabine + Tozasertib; first compound 0.1265 µM) | relative viability (Decitabine + Tozasertib; first compound 0.4 µM) | relative viability (Decitabine + Tozasertib; first compound 1.265 µM) | relative viability (Decitabine + Tozasertib; first compound 4 µM) | relative viability (Halofuginone + Dasatinib; first compound 0.001 µM) | relative viability (Halofuginone + Dasatinib; first compound 0.003162 µM) | relative viability (Halofuginone + Dasatinib; first compound 0.01 µM) | relative viability (Halofuginone + Dasatinib; first compound 0.03162 µM) | relative viability (Halofuginone + Dasatinib; first compound 0.1 µM) | relative viability (Cediranib + Decitabine; first compound 0.1265 µM) | relative viability (Cediranib + Olaparib; first compound 0.1265 µM)
LCLC-97TM1 | 0.234 | 0.223 | 0.196 | 0.248 | 0.468 | 0.384 | 0.301 | 0.504 | 0.167 | 0.17 | 0.129 | 0.11 | 0.0997 | 0.78 | 0.902 | 0.775 | 0.826 | 0.775 |  | 
LCLC-103H | 0.789 | 0.781 | 0.731 | 0.761 | 0.797 | 0.739 | 0.749 | 0.658 | 0.485 | 0.463 | 0.308 | 0.369 | 0.253 | 0.551 | 0.423 | 0.472 | 0.48 | 0.388 | 0.815 | 0.836
LK-2 | 0.287 | 0.396 | 0.269 | 0.273 | 0.67 | 0.681 | 0.802 | 0.733 | 0.168 | 0.166 | 0.182 | 0.155 | 0.19 | 0.318 | 0.329 | 0.328 | 0.251 | 0.26 | 0.231 | 0.334
LOU-NH91 | 0.787 | 0.81 | 0.792 | 0.8 | 0.972 | 0.88 | 0.908 | 0.86 | 0.444 | 0.606 | 0.522 | 0.464 | 0.512 | 0.632 | 0.578 | 0.555 | 0.582 | 0.498 | 0.831 | 0.936
LU99A | 0.936 | 0.844 | 0.863 | 0.936 | 0.236 | 0.244 | 0.267 | 0.314 | 0.32 | 0.255 | 0.291 | 0.252 | 0.219 | 0.743 | 0.584 | 0.453 | 0.53 | 0.392 |  | 
LXF-289 | 0.397 | 0.371 | 0.385 | 0.411 | 1.09 | 1.03 | 1 | 1.15 | 0.151 | 0.162 | 0.119 | 0.0869 | 0.0957 | 0.318 | 0.266 | 0.267 | 0.222 | 0.198 |  | 
NCI-H23 | 0.327 | 0.31 | 0.312 | 0.339 | 0.373 | 0.277 | 0.323 | 0.342 | 0.256 | 0.199 | 0.152 | 0.195 | 0.172 | 0.862 | 0.86 | 0.891 | 0.741 | 0.472 | 0.355 | 0.326
NCI-H322M | 0.606 | 0.715 | 0.688 | 0.654 | 0.857 | 0.618 | 0.783 | 0.762 | 0.415 | 0.484 | 0.426 | 0.35 | 0.376 | 0.27 | 0.26 | 0.251 | 0.208 | 0.212 | 0.837 | 0.757
